Data taken from PMC4942689, “Deciphering the function of the CNGB1b subunit in olfactory CNG channels” (Scientific Reports, 2016).
Where “and” joins values, the source holds several entries; their conditions need not be identical. Equal entries are not always repeated. Where two headings read alike, the source gives them in different places.

Key:
[1] = biological target: T1, CNGA2RE:A4:B1bRE channels (Rattus norvegicus, UniProt A0A8I5ZN27+Q00195+Q64359, R1106E/R538E); assay: Concentration-activation relationship, patch-clamp; assay type: biochemical; conditions: for EC50: Equation 2, +100 mV
T1 construct: expressed in transfected cells; host or cells: Xenopus laevis oocytes (cRNA injection), excised inside-out patches
Description: In order to determine the apparent affinity of the modulatory subunits in heterotetrameric CNGA2:A4:B1b channels for cGMP, we coexpressed each of them with disabled neighbored subunits, generating themselves activation effects only at much higher ligand concentrations. In case of two well-separated current components, this would allow us to determine the EC50 value for the CNGB1b and CNGA4 subunit in functional heterotetrameric channels.
Patch-clamp experiments were performed using an Axopatch 200B amplifier (Molecular Devices LLC, CA, U.S.A.) in the inside-out configuration. The patch pipettes for recording of macroscopic currents were pulled from borosilicate glass tubing (outer diameter 2.0 mm, inner diameter 1.0 mm; Hilgenberg GmbH, Germany). The initial resistance was 0.7–1.3 MΩ. The patches were formed as pushed inside-out patches. […] Cyclic nucleotide concentration jumps were performed using a double-barreled glass pipette mounted on a piezo-driven device. Intracellular (bath) and extracellular (pipette) solutions contained (mM) 150 KCl, 1 EGTA, 5 Hepes, pH = 7.4 with KOH. […] Currents in the absence of the cyclic nucleotide were subtracted. All patches included in this study were first tested for channel expression in the presence of a saturating ligand concentration. Only patches with large current, i.e. a large number of channels, were included in our statistics. The currents were measured at +10 mV or, if mentioned, at +100 mV.
Fits of equations to data points were performed with the 8.1G® software (OriginLab Corporation, Northampton, U.S.A.). Concentration-activation relationships were obtained by relating the actual current amplitude, I, to the maximum current amplitude elicited by a saturating concentration of ligand, Imax, and plotting this ratio as function of the ligand concentration, x. The concentration-activation data were fitted using the Hill equation
For the concentration-activation relationships showing two components, the data points were fitted to the sum of two Hill equations according to
EC50,h, EC50,l, Hh, and Hl are the ligand concentration of half maximum current and the Hill coefficient for the high and low affinity component, respectively. a and (1-a) denote the contribution of the high and low affinity component, respectively.

[2] = test system: CNGA2RE:A4; design: method as in Nache et al., 2012; key: +: ligand binding to the respective modulatory subunits was either observed or not; −: ligand binding to the respective modulatory subunits was either observed or not; conditions: 10 μM; construct CNGA2RE:A4; ref Nache et al., 2012; cited from earlier work

T1 sequence (Q00195 whole entry R538E): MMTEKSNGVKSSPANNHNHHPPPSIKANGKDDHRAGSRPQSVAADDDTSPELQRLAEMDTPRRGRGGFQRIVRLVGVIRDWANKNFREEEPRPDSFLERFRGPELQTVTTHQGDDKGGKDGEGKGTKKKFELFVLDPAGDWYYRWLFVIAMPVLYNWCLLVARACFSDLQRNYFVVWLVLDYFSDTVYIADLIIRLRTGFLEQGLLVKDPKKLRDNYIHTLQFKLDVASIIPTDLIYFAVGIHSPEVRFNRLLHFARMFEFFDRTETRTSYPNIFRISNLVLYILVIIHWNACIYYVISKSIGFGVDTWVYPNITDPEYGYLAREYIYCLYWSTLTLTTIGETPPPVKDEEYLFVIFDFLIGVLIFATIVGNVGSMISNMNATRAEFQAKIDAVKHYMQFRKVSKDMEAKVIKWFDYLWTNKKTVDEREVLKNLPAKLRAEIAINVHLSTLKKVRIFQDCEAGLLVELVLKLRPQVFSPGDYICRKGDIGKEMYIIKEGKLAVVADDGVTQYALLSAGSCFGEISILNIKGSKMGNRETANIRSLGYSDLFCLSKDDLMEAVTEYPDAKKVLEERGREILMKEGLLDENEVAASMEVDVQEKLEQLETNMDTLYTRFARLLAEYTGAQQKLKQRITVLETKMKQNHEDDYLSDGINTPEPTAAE
T1 sequence (Q64359 whole entry): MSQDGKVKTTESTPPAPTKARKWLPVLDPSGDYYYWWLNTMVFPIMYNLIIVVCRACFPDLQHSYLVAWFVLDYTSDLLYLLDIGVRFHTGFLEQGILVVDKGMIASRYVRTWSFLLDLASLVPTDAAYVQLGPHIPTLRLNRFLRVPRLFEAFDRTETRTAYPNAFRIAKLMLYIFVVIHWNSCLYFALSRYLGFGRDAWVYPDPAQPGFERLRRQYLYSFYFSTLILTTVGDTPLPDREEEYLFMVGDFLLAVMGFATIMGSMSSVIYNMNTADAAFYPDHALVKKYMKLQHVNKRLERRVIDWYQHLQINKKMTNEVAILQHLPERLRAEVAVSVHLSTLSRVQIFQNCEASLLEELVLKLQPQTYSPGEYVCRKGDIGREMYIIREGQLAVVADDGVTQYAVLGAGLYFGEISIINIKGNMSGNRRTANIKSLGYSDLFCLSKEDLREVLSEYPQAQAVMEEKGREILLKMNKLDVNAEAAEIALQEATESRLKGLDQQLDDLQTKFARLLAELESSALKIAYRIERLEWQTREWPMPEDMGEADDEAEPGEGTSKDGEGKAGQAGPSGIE
T1 sequence (A0A8I5ZN27 1-858 isoform A0A8I5ZN27-2 R657E): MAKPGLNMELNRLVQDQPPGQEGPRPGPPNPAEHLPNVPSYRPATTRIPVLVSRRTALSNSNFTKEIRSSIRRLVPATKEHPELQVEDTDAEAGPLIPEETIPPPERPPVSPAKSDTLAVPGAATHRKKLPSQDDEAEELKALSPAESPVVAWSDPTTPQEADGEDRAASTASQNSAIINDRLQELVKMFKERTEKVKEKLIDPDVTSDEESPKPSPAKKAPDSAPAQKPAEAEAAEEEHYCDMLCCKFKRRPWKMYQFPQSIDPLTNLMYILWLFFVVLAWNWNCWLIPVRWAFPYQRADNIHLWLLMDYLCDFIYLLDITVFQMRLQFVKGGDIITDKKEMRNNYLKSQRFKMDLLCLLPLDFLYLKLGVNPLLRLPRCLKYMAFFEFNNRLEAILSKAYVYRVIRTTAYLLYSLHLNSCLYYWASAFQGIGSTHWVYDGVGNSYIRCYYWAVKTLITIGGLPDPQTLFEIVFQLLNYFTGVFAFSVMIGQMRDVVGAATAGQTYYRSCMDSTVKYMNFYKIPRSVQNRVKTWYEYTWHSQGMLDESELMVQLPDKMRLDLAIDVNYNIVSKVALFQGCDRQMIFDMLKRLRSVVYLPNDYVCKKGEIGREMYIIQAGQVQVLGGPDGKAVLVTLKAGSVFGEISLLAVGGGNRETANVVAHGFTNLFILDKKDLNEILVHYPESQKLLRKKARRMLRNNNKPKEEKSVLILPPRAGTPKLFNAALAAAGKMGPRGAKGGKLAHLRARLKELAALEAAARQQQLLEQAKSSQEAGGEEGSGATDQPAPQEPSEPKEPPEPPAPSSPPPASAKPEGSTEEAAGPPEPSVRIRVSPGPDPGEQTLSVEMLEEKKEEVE

Row | Compound | H1 ([1]; Hill coefficient of low affinity component, +100 mV) | a (contribution of the high affinity component) ([1]; fraction, Equation 2) | EC50 ([1]; high affinity component (action of CNGA4), read-out: EC50,h) | EC50 ([1]; low affinity component, read-out: EC50,l) [µM] | maximum contribution of CNGA4 to channel activation (a) ([1]; of the maximum channel activity generated by all subunits) | Ligand binding to CNGA4 [2]
1 | Nc1nc2c(ncn2[C@@H]2O[C@@H]3COP(=O)(O)O[C@H]3[C@H]2O)c(=O)[nH]1 [cGMP] | 1.1 | 0.24 | 8.9 µM and 8.86 µM | 364 | 24.6% and ~ 24% | –
2 | 8-[DY-547]-AET-cGMP [fcGMP] | – | – | – | – | – | +
